Ends that are not written are not given here.
Tests used:
[1] = system: mouse neuroblastoma (Neuro2a) cells; assay: Cell viability by WST-8 method after addition of incubated reaction solutions (Example B6); type: cell-based; settings: reaction solution containing only the aggregation inhibiting peptide
Experimental: Then, reaction solutions with the following compositions were prepared using these solutions. The reaction solutions were incubated at 37° C. for 24 hours.
Meanwhile, 0.15 mL of medium per well was placed in the wells of a 96-well plate, and mouse neuroblastoma (Neuro2a) cells were seeded to be 2.66×10^4 cells per well. After incubation at 37° C. for 24 hours, 50 μL of each reaction solution after the incubation was added per well and further incubated at 37° C. for 24 hours. The cell viability (%) was then measured for each well by the WST-8 method.

[2] = Solubility in aqueous solvent, visual check for precipitation; type: physicochemical; settings: room temperature
Experimental: For each of the example peptides (Syn FPs) and the comparative example peptides, a 1 mmol/L peptide solution was prepared using MilliQ water as an aqueous solvent.
Each peptide was dissolved in a saline solution to prepare a 1 mmol/L sample solution.

[3] = target: Syn61-84 (Homo sapiens, UniProt P37840); assay: Inhibition of aggregate formation of Syn61-84, ThT fluorescence (Example B2); type: biochemical
Experimental: Specifically, reaction solutions with the following compositions were prepared and each dispensed into wells such that the amount of the reaction solution per well was 200 μL. In the following compositions, X mmol/L peptides (aggregation inhibiting peptide solutions: YS-11 and LYZA-3) were prepared using MilliQ water, and the concentration X mmol/L was set to 1 μmol/L, […], and 100 μmol/L in the reaction solutions. […] After the reaction solutions were incubated at 37° C. for 24 hours, 10 μL of 2 mmol/L ThT was added per well, and the fluorescence intensity was measured using a measurement device (product name: Cytation5, manufactured by BioTek) (n=3). The measurement wavelengths were set such that the excitation wavelength (ex) was 444 nm and the fluorescence wavelength (em) was 480 nm. As a control, a reaction solution to which water was added instead of the aggregation inhibiting peptides (YS-11 and LYZA-3) was also measured in the same way.

[4] = system: Parkinson's disease model mice; assay: Rota-Rod test in Parkinson's disease model mice produced with Syn61-84 (Example B4); type: in vivo
Experimental: (§1) As a control, a saline solution (Saline) was used.
(§2) The aggregation inhibiting peptide was not administered to the Saline administration group (n=3).
(§3) The short-term memory was evaluated through a Y-maze test on Day 14, Day 56, and Day 74, and the motor function was evaluated through a Rota-Rod test on Day 21, Day 55, Day 63, and Day 70. […] The Rota-Rod test was conducted using a rotor-rod device for mice (product name: MK-670, manufactured by Muromachi Kikai Co., Ltd.), with the rotational speed of the rotor set at 10 or 20 rpm, and the time until a mouse on the rotating rotor fell was measured.

[5] = target: Syn61-84 aggregates (Homo sapiens, UniProt P37840); assay: Dissociation of Syn61-84 aggregates, ThT fluorescence (Example B3); type: biochemical; settings: peptide 0.1, 1, 10, 100 μmol/L; 0.1 mM preformed Syn61-84 aggregates; 37° C. 24 hours
Experimental: Then, reaction solutions with the following compositions were prepared and each dispensed into wells such that the amount of the reaction solution per well was 200 μL, and, after the reaction solutions were incubated at 37° C. for 24 hours, 10 μL of 2 mmol/L ThT was added per well, and the fluorescence intensity was measured using a measurement device (product name Cytation5, manufactured by BioTek) (n=3). The measurement wavelengths were set such that the excitation wavelength (ex) was 444 nm and the fluorescence wavelength (em) was 480 nm. In the following compositions, X mmol/L peptides (aggregation inhibiting peptides: YS-11 and LYZA-3) were prepared using MilliQ water, and the concentration X mmol/L was set to 0.1 μmol/L, 1 μmol/L, 10 μmol/L, and 100 μmol/L in the reaction solutions. As a control, a reaction solution to which water was added instead of the peptide YS-11 and the peptide LYZA-3 was also measured in the same way.

[6] = system: Parkinson's disease model mice; assay: Y-maze test in Parkinson's disease model mice produced with Syn61-84 (Example B4); type: in vivo; settings: Day 74; 4 μL of 1 mmol/L inhibiting peptide on Day 56 to Syn61-84 mice
Experimental: as §1, §2, §3

RETLVYLTHLD [YS-11]
cell viability (control taken as 100%) [1]: no effect on the cell viability

VVTGVTAVAQKTVEG [Syn70-84, reference compound]
solubility (visual precipitation) ([2]; 1 mmol/L in saline solution): No precipitation

YSNFNTDY (aggregation inhibitor peptide) [LYZA-3]
aggregation inhibition ability compared at the same concentration (formation of aggregates) ([3]; comparison between FIGS. 4(A) and 4(B)): greater aggregation inhibition ability than the peptide YS-11 | fluorescence intensity (ThT) compared with the control (Syn61-84) ([3]; peptide 1 μmol/L, 100 μmol/L, 0.1 mM Syn61-84, 37° C. 24 hours): decreased in a concentration-dependent manner | spent time (Rota-Rod) at 10 rpm ([4]; 10 rpm, RR-3 and RR-4 after inhibiting peptide on Day 56): significant increase | spent time (Rota-Rod) at 10 rpm versus Saline administration group ([4]; 10 rpm, RR-4): longer than that of the Saline administration group | spent time (Rota-Rod) ([4]; RR-3 and RR-4, after inhibiting peptide on Day 56 to Syn61-84 mice): increase in the spent time | fluorescence intensity (ThT) compared with the control (Syn61-84), dissociation of aggregates [5]: fluorescence intensity decreased | alternation rate (Y-maze) compared with Saline administration group [6]: increase in the alternation rate

α-synuclein [full-length Syn]
solubility (visual precipitation) ([2]; 1 mmol/L in MilliQ water): precipitation of Syn was immediately visible

— patent US20240238366A1, “alpha-SYNUCLEIN AGGREGATION INHIBITOR, PHARMACEUTICAL COMPOSITION FOR alpha-SYNUCLEIN DISEASE, AND USE THEREOF” (O-FORCE CO., LTD., priority 2021, published 2024)
